# Assay results published in PubChem BioAssay AID248 (DTP/NCI, 2004).
# Several values for one entry are separate records, joined by “and”; a condition that tells them apart may be missing. Equal entries are not always repeated. Inconclusive results and toxic doses are left out.
# Tested on: L1210 leukemia ip in BDF1 mice, survival T/C
# Test: NCI In Vivo Anticancer Drug Screen. Data for tumor model L1210 Leukemia (intraperitoneal) in B6D2F1 (BDF1) mice
# Conditions: endpoint: mean survival time, higher = longer survival
# In short: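 Antitumor effect is assessed in tumor-bearing animals. Survival in the compound arm is compared with a vehicle-dosed control arm and expressed as their quotient.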
# [1] = dose: 100.0 mg/kg/injection, schedule: Q01DX001 (ip), vehicle: saline
# [2] = dose: 200.0 mg/kg/injection, schedule: Q01DX001 (ip), vehicle: saline
# [3] = dose: 400.0 mg/kg/injection, schedule: Q01DX001 (ip), vehicle: saline
# [4] = dose: 100.0 mg/kg/injection, schedule: Q01DX009 (ip), vehicle: Klucel (hydroxypropylcellulose) (HPC)
# [5] = dose: 200.0 mg/kg/injection, schedule: Q01DX009 (ip), vehicle: Klucel (hydroxypropylcellulose) (HPC)
# [6] = dose: 100.0 mg/kg/injection, schedule: Q04DX003 (ip), vehicle: saline with Tween-80
# [7] = dose: 200.0 mg/kg/injection, schedule: Q04DX003 (ip), vehicle: saline with Tween-80
# [8] = dose: 400.0 mg/kg/injection, schedule: Q04DX003 (ip), vehicle: saline with Tween-80
# [9] = dose: 25.0 mg/kg/injection, schedule: Q04DX002 (ip), vehicle: Klucel (hydroxypropylcellulose) (HPC)
# [10] = dose: 50.0 mg/kg/injection, schedule: Q04DX002 (ip), vehicle: Klucel (hydroxypropylcellulose) (HPC)
# [11] = dose: 100.0 mg/kg/injection, schedule: Q04DX002 (ip), vehicle: Klucel (hydroxypropylcellulose) (HPC)
# [12] = dose: 100.0 mg/kg/injection, schedule: Q01DX009 (ip), vehicle: saline with Tween-80
# [13] = dose: 200.0 mg/kg/injection, schedule: Q01DX009 (ip), vehicle: saline with Tween-80
# [14] = dose: 400.0 mg/kg/injection, schedule: Q01DX009 (ip), vehicle: saline with Tween-80
# [15] = dose: 100.0 mg/kg/injection, schedule: Q04DX003 (ip), vehicle: Klucel (hydroxypropylcellulose) (HPC)
# [16] = dose: 200.0 mg/kg/injection, schedule: Q04DX003 (ip), vehicle: Klucel (hydroxypropylcellulose) (HPC)
# [17] = dose: 200.0 mg/kg/injection, schedule: Q04DX002 (ip), vehicle: Klucel (hydroxypropylcellulose) (HPC)
# [18] = dose: 400.0 mg/kg/injection, schedule: Q04DX002 (ip), vehicle: Klucel (hydroxypropylcellulose) (HPC)
# [19] = dose: 50.0 mg/kg/injection, schedule: Q01DX009 (ip), vehicle: saline
# [20] = dose: 100.0 mg/kg/injection, schedule: Q01DX009 (ip), vehicle: saline
# [21] = dose: 100.0 mg/kg/injection, schedule: Q04DX002 (ip), vehicle: saline
# [22] = dose: 200.0 mg/kg/injection, schedule: Q04DX002 (ip), vehicle: saline
# [23] = dose: 400.0 mg/kg/injection, schedule: Q04DX002 (ip), vehicle: saline
# [24] = dose: 100.0 mg/kg/injection, schedule: Q01DX001 (ip), vehicle: carboxymethylcellulose (CMC)
smiles,measurement,setting,value
O=C(Nc1ccc(C2=NCCN2)cc1)c1cc(Cl)cc(C(=O)Nc2ccc(C3=NCCN3)cc2)c1,T/C,"dose: 62.5 mg/kg/injection, schedule: Q01DX009 (ip), vehicle: saline",96 % of control and 104 % of control
same,T/C,"dose: 120.0 mg/kg/injection, schedule: Q01DX Z (oral), vehicle: carboxymethylcellulose (CMC)",102 % of control
same,T/C,"dose: 125.0 mg/kg/injection, schedule: Q01DX009 (ip), vehicle: saline",99 % of control and 106 % of control
same,T/C,"dose: 140.0 mg/kg/injection, schedule: Q01DX010 (ip), vehicle: saline",105 % of control
same,T/C,"dose: 140.0 mg/kg/injection, schedule: Q01DX Z (ip), vehicle: methylcellulose (MC)",107 % of control and 110 % of control
same,T/C,"dose: 210.0 mg/kg/injection, schedule: Q01DX010 (ip), vehicle: saline",109 % of control
same,T/C,"dose: 210.0 mg/kg/injection, schedule: Q01DX Z (ip), vehicle: methylcellulose (MC)",115 % of control
same,T/C,"dose: 240.0 mg/kg/injection, schedule: Q01DX Z (oral), vehicle: carboxymethylcellulose (CMC)",104 % of control
same,T/C,"dose: 250.0 mg/kg/injection, schedule: Q01DX009 (ip), vehicle: saline",96 % of control and 104 % of control
same,T/C,"dose: 315.0 mg/kg/injection, schedule: Q01DX010 (ip), vehicle: saline",98 % of control and 105 % of control
same,T/C,"dose: 315.0 mg/kg/injection, schedule: Q01DX Z (ip), vehicle: methylcellulose (MC)",179 % of control
same,T/C,"dose: 473.0 mg/kg/injection, schedule: Q01DX010 (ip), vehicle: saline",107 % of control and 110 % of control
same,T/C,"dose: 473.0 mg/kg/injection, schedule: Q01DX Z (ip), vehicle: methylcellulose (MC)",151 % of control
same,T/C,"dose: 480.0 mg/kg/injection, schedule: Q01DX Z (oral), vehicle: carboxymethylcellulose (CMC)",107 % of control
same,T/C,"dose: 500.0 mg/kg/injection, schedule: Q01DX009 (ip), vehicle: saline",103 % of control and 112 % of control
same,T/C,"dose: 960.0 mg/kg/injection, schedule: Q01DX Z (oral), vehicle: carboxymethylcellulose (CMC)",100 % of control
O=c1cccc(CCc2ccccc2)[nH]1,T/C,[1],100 % of control
same,T/C,[2],95 % of control
same,T/C,[3],105 % of control
O=C(Nc1cccc([N+](=O)[O-])c1)Nc1ccccc1C(F)(F)F,T/C,[4],94 % of control
same,T/C,[5],91 % of control
same,T/C,"dose: 400.0 mg/kg/injection, schedule: Q01DX009 (ip), vehicle: Klucel (hydroxypropylcellulose) (HPC)",93 % of control
CN(C)C1=CC(=N/S(=O)(=O)c2ccccc2)/C(N(C)C)=CC/1=N/S(=O)(=O)c1ccccc1,T/C,[6],88 % of control
same,T/C,[7],90 % of control
same,T/C,[8],87 % of control
O=C(COc1ccccc1C(=O)O)Nc1ccccc1,T/C,[9],114 % of control
same,T/C,[10],92 % of control
same,T/C,[11],96 % of control
CC/S(=N\S(=O)(=O)c1ccc(C)cc1)c1ccccc1 (configuration not stated),T/C,[12],108 % of control
same,T/C,[13],100 % of control
same,T/C,[14],100 % of control
OC1(C#CC2(O)CCCCC2)CCCCC1,T/C,"dose: 50.0 mg/kg/injection, schedule: Q01DX009 (ip), vehicle: Klucel (hydroxypropylcellulose) (HPC)",98 % of control
same,T/C,[4],89 % of control
same,T/C,[15],98 % of control
same,T/C,[5],102 % of control
same,T/C,[16],90 % of control
CCCCOC(=O)c1ccc(NC(=S)NC(=O)COc2ccccc2)cc1,T/C,[11],118 % of control
same,T/C,[17],101 % of control
same,T/C,[18],97 % of control
N#CC(CCCc1cccc(N2CN=C(N)N=C2N)c1)c1ccccc1 (configuration not stated),T/C,"dose: 50.0 mg/kg/injection, schedule: Q01DX001 (ip), vehicle: saline",96 % of control
O=c1[nH]nnc2ccccc12,T/C,[19],90 % of control
same,T/C,[20],90 % of control
same,T/C,"dose: 100.0 mg/kg/injection, schedule: Q04DX003 (ip), vehicle: alcohol",98 % of control
same,T/C,"dose: 200.0 mg/kg/injection, schedule: Q04DX003 (ip), vehicle: alcohol",100 % of control
O=C(O)C1CCC1C(=O)O (configuration not stated),T/C,[21],90 % of control
same,T/C,[22],90 % of control
same,T/C,[23],87 % of control
COc1ccc(P(=NS(=O)(=O)c2ccc(C)cc2)(c2ccc(OC)cc2)c2ccc(OC)cc2)cc1,T/C,[15],91 % of control
same,T/C,[16],96 % of control
CC(C)(N)CNC(C)(C)CO,T/C,[19],102 % of control
same,T/C,[20],102 % of control
COc1cc2c(cc1OC)C(Cc1ccc(OC(=O)O)cc1)=NCC2,T/C,[24],102 % of control
same,T/C,"dose: 200.0 mg/kg/injection, schedule: Q01DX001 (ip), vehicle: carboxymethylcellulose (CMC)",102 % of control
C=CC(C)(C)c1ccccc1O,T/C,[6],95 % of control
same,T/C,[7],104 % of control
CCN1CCCN(CC)C1=O,T/C,[11],96 % of control
same,T/C,[17],96 % of control
same,T/C,[18],90 % of control
NC(=O)C1(Nc2ccc(-c3ccc(Br)cc3)cc2)CCCC1,T/C,"dose: 50.0 mg/kg/injection, schedule: Q01DX001 (ip), vehicle: carboxymethylcellulose (CMC)",95 % of control
same,T/C,[24],86 % of control
same,T/C,"dose: 400.0 mg/kg/injection, schedule: Q01DX001 (ip), vehicle: carboxymethylcellulose (CMC)",86 % of control
NC(=O)c1ccc(NCc2cnc3nc(N)nc(N)c3n2)cc1,T/C,"dose: 20.0 mg/kg/injection, schedule: Q01DX009 (ip), vehicle: Klucel (hydroxypropylcellulose) (HPC)",106 % of control
same,T/C,"dose: 40.0 mg/kg/injection, schedule: Q01DX009 (ip), vehicle: Klucel (hydroxypropylcellulose) (HPC)",101 % of control
same,T/C,"dose: 80.0 mg/kg/injection, schedule: Q01DX009 (ip), vehicle: Klucel (hydroxypropylcellulose) (HPC)",103 % of control
COC(=S)S,T/C,[1],108 % of control
same,T/C,[2],108 % of control
same,T/C,[3],105 % of control
NC(=NCc1ccccc1)c1ccc(NC(=O)c2ccc(C(=O)Nc3ccc(C(N)=NCc4ccccc4)cc3)cc2)cc1,T/C,"dose: 7.0 mg/kg/injection, schedule: Q01DX Z (ip), vehicle: water",113 % of control
CCS(=O)(=O)N1CCCCC1C (configuration not stated),T/C,"dose: 100.0 mg/kg/injection, schedule: Q04DX002 (ip), vehicle: saline with Tween-80",93 % of control
same,T/C,"dose: 200.0 mg/kg/injection, schedule: Q04DX002 (ip), vehicle: saline with Tween-80",99 % of control
same,T/C,"dose: 400.0 mg/kg/injection, schedule: Q04DX002 (ip), vehicle: saline with Tween-80",96 % of control
CC#CCOCC1CN(c2ccccc2)C(=O)O1 (configuration not stated),T/C,[12],117 % of control
same,T/C,[6],95 % of control
same,T/C,[13],103 % of control
same,T/C,[7],103 % of control
same,T/C,[14],100 % of control
same,T/C,[8],101 % of control
O=C1Nc2ccccc2C1(O)c1ccccc1 (configuration not stated),T/C,"dose: 75.0 mg/kg/injection, schedule: Q01DX001 (ip), vehicle: saline",103 % of control
same,T/C,"dose: 150.0 mg/kg/injection, schedule: Q01DX001 (ip), vehicle: saline",101 % of control
same,T/C,"dose: 300.0 mg/kg/injection, schedule: Q01DX001 (ip), vehicle: saline",92 % of control
CCCCCOC(c1ccc2c(c1)OCO2)C(C)Br (configuration not stated),T/C,[21],96 % of control
same,T/C,[22],104 % of control
same,T/C,[23],90 % of control
CCCCc1ccncc1,T/C,"dose: 5.0 mg/kg/injection, schedule: Q01DX001 (ip), vehicle: saline",102 % of control
same,T/C,"dose: 10.0 mg/kg/injection, schedule: Q01DX001 (ip), vehicle: saline",100 % of control
same,T/C,"dose: 20.0 mg/kg/injection, schedule: Q01DX001 (ip), vehicle: saline",100 % of control
same,T/C,"dose: 40.0 mg/kg/injection, schedule: Q01DX001 (ip), vehicle: saline",90 % of control
same,T/C,"dose: 80.0 mg/kg/injection, schedule: Q01DX001 (ip), vehicle: saline",93 % of control
same,T/C,[1],98 % of control
O=C(OCc1ccccc1CN1CCCCC1)c1ccc([N+](=O)[O-])cc1,T/C,[9],101 % of control
same,T/C,[10],94 % of control
same,T/C,[11],90 % of control
